# Values quoted from earlier work in patent US7662371B2, “Composition for lowering the concentration of intestinal pathogenic peptides” (Neurozym Biotech AS, priority 2001, dated 2010).
# Settings: oral treatment, regressive-onset autism
structure (smiles),measurement,value
CN[C@H](CC(C)C)C(=O)N[C@H]1C(=O)N[C@@H](CC(N)=O)C(=O)N[C@H]2C(=O)N[C@H]3C(=O)N[C@H](C(=O)N[C@H](C(=O)O)c4cc(O)cc(O)c4-c4cc3ccc4O)[C@H](O)c3ccc(c(Cl)c3)Oc3cc2cc(c3O[C@@H]2O[C@H](CO)[C@@H](O)[C@H](O)[C@H]2O[C@H]2C[C@](C)(N)[C@H](O)[C@H](C)O2)Oc2ccc(cc2Cl)[C@H]1O [vancomycin],"improvement, number of children",8 of 10
